In patent US11591294B2, “Fluorenone/fluorenol derivatives for aqueous redox flow batteries” (Battelle Memorial Institute, priority 2019, dated 2023):
≈ marks a conversion by molar mass, not a printed value. Read-outs that look alike come from different tables or passages of the source. Blank lines part the entries; values can stand above or below the compound they belong to.

Tests used:
[1] = Solubility test; assay type: physicochemical
Procedure: Solubility test: The dissolving solvent was added drop by drop to 1 mmol of testing powder with intermittent agitation with VWR Vertex mixer, until all powder was dissolved. The total mass of the solution was recorded. A glass micro syringe was used to transfer 100 μL of the solution directly to a tared weight glass vial for mass measurement. Specific gravity of the as-obtained solution was calculated, then the total volume of the as-obtained solution was calculated using calculated density and recorded total solution mass. Last, molarity was calculated based on calculated total solution volume (Duan et al., ACS Energy Letters 2017, 2:1156-1161).
The solubilities of as-synthesized FLs in basic solution, 2 M NaOH/KOH, was investigated. […] The energy density is almost double that of a conventional vanadium electrolyte.

[2] = Post-cycling analysis of anolyte (NMR, mass spectroscopy); assay type: physicochemical; settings: after 6-month operation, 1.36 M anolyte
Procedure: An additional test was conducted for six months (FIG. 18). […] At about cycle 650, catholyte precipitation was noticed, and replaced with fresh catholyte. No material degradation was detected by NMR or mass-spectroscopy (FIGS. 21 and 22).
For the reason that charged anolyte is usually sensitive to 02, flow battery tests of organic based electrolyte reported so far are conducted in inert atmosphere, which is a significant hurdle to their practical applications. We submit another battery test without significant deaerating treatment at reasonable CE and EE (FIGS. 34 and 35). The 1 M battery was assembled without N2 atmosphere, sealed with a stopper and parafilm, and no further deoxygenation was conducted before charging. The battery operated stably at 20 mA/cm^2 for 2 weeks. The observed capacity fluctuation was attributed to temperature changes on a daily basis. […] The first cycle low CE was attributed to charged material consuming existing 02 in the cell system. As expected, the first cycle charging capacity was a little higher than same amount of substance in a battery inside the purge box (without 02 induced discharge influence). However, no irreversible side reactions occurred and long-term cycling occurred analogous to tests conducted in an inert atmosphere purge box. […]

[3] = 2M KOH column; literature data provided as a comparison (tested in KOH); cited from earlier work
[4] = Cyclic voltammetry in aqueous 1 M NaOH; assay type: physicochemical; settings: 1 M NaOH solution
Procedure: Electrochemical tests: CV measurements in aqueous phase were performed using a three-electrode configuration consisting of a glassy carbon working electrode (3 mm diameter), a glassy carbon counter electrode and an Ag/AgCl reference electrode. The electrolytes of 10 mM redox-active materials in 1.0 M NaOH were used. CV data were collected using a CHI760D potentiostat (CH Instruments) at a scan rate of 100 mV s^−1 (Hollas et al., Nature Energy 2018, 3:508-514). CV measurements in nonaqueous phase were performed using a three-electrode configuration consisting of a glassy carbon working electrode (3 mm diameter), a glassy carbon counter electrode and an Ag/AgNO3 (10 mM in Acetonitrile) as reference electrode or Ag wire as pseudo reference electrode (Inzelt et al., Handbook of Reference Electrodes, 2013, Springer). Tests were carried out in an argon-filled Mbraun glove box (Stratham, N.H., USA).
In view of the DFT calculation, it was theorized that functionalization of the FL ring structures with electron withdrawing groups such as —F, -sulfonamide, and —SO3−, among others, would shift the equilibrium constant to increase the concentration of deprotonated FL-OH anion/dianion relative to FL-OH, thereby improving the two-electron redox-reversibility of FLs. […] As expected, the CV curves with two pairs of peaks become clear and sharp with adding stronger electron withdrawing groups. […]

[5] = 2 M KOH solution, aqueous buffer, thermodynamic from solid, 2M KOH, read-out: Solubility
[6] = 2 M NaOH solution, aqueous buffer, thermodynamic from solid, 2M NaOH, read-out: Solubility

- solubility [1, 5]: 1300 mM (≈ 396 mg/mL)
- solubility [1, 6]: 1500 mM (≈ 456 mg/mL)
- available electron concentration ([1]; two-electron redox reaction, from solubility): ~3 M
Compound: O=C(O)c1cccc2c1-c1ccc(S(=O)(=O)O)cc1C2=O [Compound 4C7SFL, 9-Oxo-7-sulfo-9H-fluorene-4-carboxylic acid]
- post-cycling analysis (in words) [2]: small, yet observable new aromatic peaks attributed to de-sulfonation on the fluorenone core structure

- solubility ([1]; 2 M KOH solution, aqueous buffer, thermodynamic from solid, read-out: Solubility): < 50 mM
- solubility ([1]; 2 M NaOH solution, aqueous buffer, thermodynamic from solid, read-out: Solubility): < 50 mM
- solubility ([1]; thermodynamic from solid, disodium salt in pure water, read-out: Solubility): ≤ 240 mM
Compound: O=C1c2cc(S(=O)(=O)[O-])ccc2-c2ccc(S(=O)(=O)[O-])cc21.[K+].[K+] [DSFL, Potassium 9-oxo-9H-fluorene-2,7-disulfonate]

- solubility [1, 5]: 700 mM
- solubility [1, 6]: 1100 mM
Compound: O=C(O)c1ccc2c(c1)C(=O)c1cc(S(=O)(=O)[O-])ccc1-2.[K+] [Compound 2C7SFL]

- solubility ([1]; 2M KOH): trace
- solubility ([1]; 2M NaOH): trace
Compound: O=C1c2cc(OCCOCCOCCO)ccc2-c2ccc(OCCOCCOCCO)cc21 [PEG-FL]

- solubility ([1]; 2M KOH): 900 mM (≈ 241 mg/mL)
- solubility ([1]; 2M NaOH): 40 mM (≈ 10.7 mg/mL)
Compound: O=C(O)c1ccc2c(c1)C(=O)c1cc(C(=O)O)ccc1-2 [DCFL]

- solubility ([1]; thermodynamic from solid, with agitation, copious precipitate after sitting overnight, read-out: Solubility (transparent homogeneous solution)): ≤ 1400 mM
Compound: O=C(O)c1cc(F)cc2c1-c1ccc(F)cc1C2=O [Compound 27F4CFL]

The remaining lines, values behind:

Compound: O=C(O)c1ccc2c(c1)C(=O)c1ccccc1-2 [Compound 2CFL]
- solubility [3]: 800 mM (≈ 179 mg/mL)

Compound: N#Cc1nc2c(nc1O)-c1ccccc1C2=O [Compound 14N2CN3OHFL, 3-hydroxy-9-oxo-9H-indeno[1,2-b]pyrazine-2-carbonitrile]
- solubility [1, 6]: 1000 mM (≈ 223 mg/mL)
- reversible peak potential [4]: ~−0.85 V vs Ag/AgCl

Compound: O=C1c2cc(O)ccc2-c2ccc(O)cc21 [DHFL, 9-oxo-2,7-dihydroxy-9H-fluorene]
- solubility ([1]; pure water with 2 eq. NaOH, aqueous buffer, thermodynamic from solid, with 2 eq. NaOH in pure water, read-out: Solubility): 600 mM (≈ 127 mg/mL)

Compound: O=C1c2cc(Br)cc(S(=O)(=O)[O-])c2-c2c1cc(Br)cc2S(=O)(=O)[O-].[K+].[K+] [Compound 27Br4SFL]
- solubility ([1]; 2M KOH): trace
- solubility ([1]; 2M NaOH): trace

Compound: O=C(O)c1cc(F)cc2c1-c1c(cc(F)cc1S(=O)(=O)[O-])C2=O.[K+] [Compound 27F4C5SFL]
- solubility ([1]; 2M NaOH): 150 mM

Compound: O=C(O)c1cc(S(=O)(=O)O)cc2c1-c1ccc(S(=O)(=O)O)cc1C2=O [Compound 27S4CFL, 9-oxo-2,7-sulfo-9H-fluorene-4-carboxylic acid]
- solubility ([1]; 2M NaOH): 800 mM (≈ 307 mg/mL)

Compound: O=C(O)c1cccc2c1-c1ccccc1C2=O [Compound 4CFL]
- solubility [3]: 650 mM (≈ 146 mg/mL)

Compound: O=C1c2cccnc2-c2ncccc21 [Compound 45NFL, 4,5-diazafluoren-9-one]
- solubility (in words) [1]: limited solubility
